In patent US12370143B2, “Compound or salt thereof and lipid particles” (FUJIFILM Corporation, priority 2018, dated 2025):

Legend:
[1] = Particle size of nucleic acid lipid particles (Luc2-siRNA); format: physicochemical; conditions: compound/DSPC/cholesterol/DMG-PEG2000 50/10/38.5/1.5
Method in brief: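 Particle size was read by ELS-Z2 light scattering on nucleic acid lipid particles after dialysis against PBS. These were made by micromixing Luc2-siRNA (19.7 μmol/L, pH 4 acetate) with ethanolic lipids (test lipid/DSPC/cholesterol/DMG-PEG2000 50/10/38.5/1.5, 20 mmol/L) at 3:1 water:oil, siRNA/lipid 339 mol/mol.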

[2] = Particle size of lipid particles (no nucleic acid); format: physicochemical; conditions: lipid particles without nucleic acid; compound/DSPC/cholesterol/DMG-PEG2000 molar ratio 50/10/38.5/1.5; ELS-Z2
Description: The compounds described in Examples 1, 9, and 10,1,2-distearoyl-sn-glycero-3-phosphocholine (trade name: COATSOME® MC-8080; NOF corporation), cholesterol (trade name: Cholesterol HP; NIPPON FINE CHEMICAL CO., LTD.), and 1,2-dimyristoyl-rac-glycero-3-(methylpolyoxyethylene 2000) (hereinafter, called DMG-PEG2000) (trade name: SUNBRIGHT® GM-020; NOF corporation) were dissolved in ethanol at a molar ratio of 50/10/38.5/1.5 such that the total lipid concentration became 20 mmol/L, thereby obtaining an oil phase.
A 10 mmol/L acetate buffer having a pH of 4 was used as a water phase and mixed with the oil phase by a micromixer (see JP5288254B) using a syringe pump such that the volume ratio of water phase:oil phase became 6.7:3.3. The mixed solution was diluted 2× with a phosphate buffered saline (PBS), thereby obtaining a dispersion liquid of lipid particles. The dispersion liquid was dialyzed using a dialysis cassette (Slide-A-Lyzer G2, MWCO: 10 kD, Thermo Fisher Scientific) including PBS such that ethanol was removed, thereby obtaining lipid particles containing the compounds described in Examples 1, 9, and 10.
By using the dispersion liquid of lipid particles as it was, the particle size of the lipid particles was measured using a zeta potential/particle size measurement system ELS-Z2 (Otsuka Electronics Co., Ltd.).

[3] = Encapsulation rate of siRNA in nucleic acid lipid particles (Luc2-siRNA); format: physicochemical; conditions: compound/DSPC/cholesterol/DMG-PEG2000 50/10/38.5/1.5
Method in brief: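 Encapsulation rate was calculated as (total − outer-phase siRNA)/total ×100. Total siRNA was quantified spectrophotometrically after lipid-dissolving ethanol precipitation, and unencapsulated siRNA by RiboGreen in TE (ex 485/em 535 nm). The particles were test lipid/DSPC/cholesterol/DMG-PEG2000 at 50/10/38.5/1.5, formed by microfluidic mixing with Luc2-siRNA at pH 4 and dialyzed against PBS.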

[4] = Particle size of nucleic acid lipid particles (FVII-siRNA); format: physicochemical
Method in brief: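 Lipid particles formed by micromixing ethanolic ionizable lipid/DSPC/cholesterol/DMG-PEG2000 (50/10/38.5/1.5 mol) with siRNA in pH 4 acetate buffer (3:1 water:oil), diluted with PBS and dialysed against PBS.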

[5] = tested on: DMS273 cells constantly expressing Luc; test: Target reporter protein (Luc) knockdown in cell, reporter protein assay; format: cell-based; conditions: Homo sapiens, DMS-273; Luc2-siRNA lipid particles using the compound; siRNA 0.1 to 100 nmol/L; concentration at which Luc expression is knocked down to 50%; read-out: IC50
Method in brief: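 Nucleic acid lipid particles added at final 0.1 to 100 nmol/L to DMS273 human SCLC cells stably expressing Luc2, 24 hr exposure then 24 hr further culture after medium change. Luc quantified by Steady Glo luminescence after viable cell count; knockdown efficiency calculated and IC50 taken as concentration giving 50% Luc reduction.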

[6] = tested on: Factor VII (FVII) protein; test: Measurement of Factor VII (FVII) protein in mouse plasma after FVII-siRNA lipid particles; format: in vivo, C57BL6/J mice; conditions: 0.1 mg/kg caudal vein, plasma 24 hours after administration, PBS group = 100%
Method in brief: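 C57BL6/J mice (n=3) received FVII-siRNA nucleic acid lipid particles at 0.1 mg/kg into the tail vein; controls got PBS. Each value is the percentage of the PBS-group FVII level.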

[7] = Nucleic acid encapsulation rate of nucleic acid lipid particles (FVII-siRNA); format: physicochemical
Method in brief: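 Total nucleic acid was measured by adding 30 μL of 3 mol/L sodium acetate and 9 μL of glycogen to 60 μL of FVII-siRNA lipid particles, then precipitating with 1.5 mL ethanol, centrifuging, air-drying, redissolving in water, and reading on a Nanodrop. Outer-phase nucleic acid came from a RiboGreen assay (ex 485 nm, em 535 nm) on samples diluted 10,000× in 1×TE. Encapsulation (%) = (total − outer)/total × 100.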

SMILES | Particle size (nm) [1] [nm] | Particle size (nm) [2] [nm] | Nucleic acid encapsulation rate [3] [%] | Particle size (nm) [4] [nm] | IC50 [5] [nM] | Relative amount of FVII protein (%) [6] [%] | Nucleic acid encapsulation rate [7] [%]
CCCCCCCCCCCCCCCCN(CCCCCCCCCCCCCCCC)C(=O)OCCN(C)CCN(C)C [Example 10, 2-((2-(Dimethylamino)ethyl)(methyl)amino)ethyl dihexadecylcarbamate] | 159.9 | 111.2 | 80 | – | – | – | –
CCCCCCCCCC(=O)OCCN(CCOC(=O)OC(CCCCCC)CCCC(=O)OCC(CCCC)CCCCCC)CCN(CC)CC (stereo not drawn) [Example 107, 2-Butyloctyl 6-(2-(decanoyloxy)ethyl)-3-ethyl-12-hexyl-10-oxo-9,11-dioxa-3,6-diazahexadecan-16-oate] | 64.8 | – | 78 | 70.6 | 23 | 1 | 83
CCCCCCCCCCCC(=O)OCCN(CCOC(=O)OC(CCCCCC)CCCC(=O)OCC(CCCCCC)CCCCCCCC)CCN(CC)CC (stereo not drawn) [Example 109, 2-Hexyldecyl 6-(2-(dodecanoyloxy)ethyl)-3-ethyl-12-hexyl-10-oxo-9,11-dioxa-3,6-diazahexadecan-16-oate] | 65.7 | – | 91 | 62.7 | 26 | 3 | 86
CCCCCCCCCC(=O)OCCN(CCOC(=O)OC(CCCCCC)CCCC(=O)OCC(CCCCCC)CCCCCCCC)CCN(CC)CC (stereo not drawn) [Example 110, 2-Hexyldecyl 6-(2-(decanoyloxy)ethyl)-3-ethyl-12-hexyl-10-oxo-9,11-dioxa-3,6-diazahexadecan-16-oate] | 60.7 | – | 87 | 66.1 | 17 | 2 | 85
CCCCCCCCC(CCCCCC)COC(=O)CCCC(CCCCCC)OC(=O)OCCN(CCOC(=O)CCCCCCC)CCN(CC)CC (stereo not drawn) [Example 111, 2-Hexyldecyl 3-ethyl-12-hexyl-6-(2-(octanoyloxy)ethyl)-10-oxo-9,11-dioxa-3,6-diazahexadecan-16-oate] | 63.9 | – | 93 | 70.5 | 42 | 2 | 88
CCCCCCCCCCC(CCCCCCCC)COC(=O)CCCC(CCCCCC)OC(=O)OCCN(CCN(CC)CC)C(C)C (stereo not drawn) [Example 112, 2-Octyldodecyl 3-ethyl-12-hexyl-6-isopropyl-10-oxo-9,11-dioxa-3,6-diazahexadecan-16-oate] | 68.6 | – | 79 | 74.2 | 18 | 3 | 100
CCCCCCCCCCCCC(CCCCCCCCCC)COC(=O)CCCC(CCCCCC)OC(=O)OCCN(CCN(CC)CC)C(C)C (stereo not drawn) [Example 113, 2-Decyltetradecyl 3-ethyl-12-hexyl-6-isopropyl-10-oxo-9,11-dioxa-3,6-diazahexadecan-16-oate] | 67.8 | – | 82 | 66.1 | 21 | 4 | 100
CCCCCCCC/C=C\CCCCCCCC(=O)OCCN(CCOC(=O)OC(CCCCCC)CCCCCCCCC(=O)OCC(CCCCCC)CCCCCCCC)CCN(CC)CC (stereo not drawn) [Example 118, 2-Hexyldecyl 3-ethyl-12-hexyl-6-(2-(oleoyloxy)ethyl)-10-oxo-9,11-dioxa-3,6-diazahenicosan-21-oate] | 93.6 | – | 90 | 80.5 | 35 | 9 | 64
CCCCCCCC/C=C\CCCCCCCC(=O)OCCN(CCOC(=O)OC(CCCCCC)CCCC(=O)OCC(CCCC)CCCCCC)CCN(CC)CC (stereo not drawn) [Example 119, 2-Butyloctyl 3-ethyl-12-hexyl-6-(2-(oleoyloxy)ethyl)-10-oxo-9,11-dioxa-3,6-diazahexadecan-16-oate] | 67.8 | – | 89 | 66.3 | 31 | 5 | 69
CCCCCCCC/C=C\CCCCCCCC(=O)OCCN(CCOC(=O)OC(CCCCCC)CCCC(=O)OCC(CCCCCC)CCCCCCCC)CCN(CC)CC (stereo not drawn) [Example 120, 2-Hexyldecyl 3-ethyl-12-hexyl-6-(2-(oleoyloxy)ethyl)-10-oxo-9,11-dioxa-3,6-diazahexadecan-16-oate] | 66.5 | – | 90 | 68.1 | 27 | 6 | 66
CCCCCCCCCCC(CCCCCCCC)COC(=O)CCCCCCCCC(CCCCCC)OC(=O)OCCN(CCN(CC)CC)C(C)C (stereo not drawn) [Example 121, 2-Octyldodecyl 3-ethyl-12-hexyl-6-isopropyl-10-oxo-9,11-dioxa-3,6-diazahenicosan-21-oate] | 63.2 | – | 91 | 65.8 | 39 | 10 | 70
CCCCCCCOC(=O)CCN(CCOC(=O)OC(CCCCCC)CCCCCCCCC(=O)OCC(CCCC)CCCCCC)CCN(CC)CC (stereo not drawn) [Example 122, 2-Butyloctyl 3-ethyl-6-(3-(heptyloxy)-3-oxopropyl)-12-hexyl-10-oxo-9,11-dioxa-3,6-diazahenicosan-21-oate] | 69.5 | – | 83 | 80.7 | 19 | 3 | 84
CCCCCCCC(=O)OCCN(CCOC(=O)OC(CCCCCC)CCCCCCCCC(=O)OCC(CCCCC)CCCCC)CCN(CC)CC (stereo not drawn) [Example 129, 2-Pentylheptyl 3-ethyl-12-hexyl-6-(2-(octanoyloxy)ethyl)-10-oxo-9,11-dioxa-3,6-diazahenicosan-21-oate] | 70.2 | – | 63 | 76.4 | 41 | 4 | 58
